Measured values taken from patent US20230295200A1 (REGENTS OF THE UNIVERSITY OF MICHIGAN, priority 2022, published 2023).

Assays:
[1] = target: T1, STAT6 protein (Homo sapiens, UniProt P42226); experiment: Fluorescence polarization (FP) binding assay, STAT6; settings: FP competition, 5 nM fluorescein-labeled tracer, 200 nM protein, PBS pH7.4; read-out: Binding STAT6
T1 sequence (P42226 1-847): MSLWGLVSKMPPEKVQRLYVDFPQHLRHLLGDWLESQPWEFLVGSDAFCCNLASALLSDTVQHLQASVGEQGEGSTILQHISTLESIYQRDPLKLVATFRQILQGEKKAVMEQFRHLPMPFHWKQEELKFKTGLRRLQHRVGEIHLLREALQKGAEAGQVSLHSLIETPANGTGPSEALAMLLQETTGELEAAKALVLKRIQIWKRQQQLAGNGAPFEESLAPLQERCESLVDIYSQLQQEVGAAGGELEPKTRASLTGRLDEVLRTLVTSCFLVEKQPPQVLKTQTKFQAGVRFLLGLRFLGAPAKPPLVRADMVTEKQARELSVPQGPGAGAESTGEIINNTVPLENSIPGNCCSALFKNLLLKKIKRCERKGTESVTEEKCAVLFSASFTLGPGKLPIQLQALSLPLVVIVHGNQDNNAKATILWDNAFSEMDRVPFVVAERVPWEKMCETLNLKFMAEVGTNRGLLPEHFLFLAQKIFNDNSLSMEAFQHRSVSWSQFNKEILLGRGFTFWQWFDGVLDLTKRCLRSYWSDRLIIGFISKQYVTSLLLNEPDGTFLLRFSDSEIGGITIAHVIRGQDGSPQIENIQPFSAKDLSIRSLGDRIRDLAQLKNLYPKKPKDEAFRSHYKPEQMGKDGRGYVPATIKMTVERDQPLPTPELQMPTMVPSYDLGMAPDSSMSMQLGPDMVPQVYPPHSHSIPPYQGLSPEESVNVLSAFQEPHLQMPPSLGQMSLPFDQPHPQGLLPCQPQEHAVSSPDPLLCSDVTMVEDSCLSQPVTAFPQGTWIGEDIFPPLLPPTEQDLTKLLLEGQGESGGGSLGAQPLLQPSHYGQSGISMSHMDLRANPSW
Summary of the method: (§1)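 Polarization of a 5 nM fluorescein tracer bound by 200 nM STAT protein, measured after 1 h room-temperature equilibration in buffered PBS pH 7.4 with DTT, gave inhibition constants via nonlinear curve fitting.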

[2] = target: T2, STAT5A (Homo sapiens, UniProt P42229); experiment: Fluorescence polarization (FP) binding assay, STAT5A; settings: FP competition, 5 nM fluorescein-labeled tracer, 200 nM protein, PBS pH7.4
T2 sequence (P42229 1-794): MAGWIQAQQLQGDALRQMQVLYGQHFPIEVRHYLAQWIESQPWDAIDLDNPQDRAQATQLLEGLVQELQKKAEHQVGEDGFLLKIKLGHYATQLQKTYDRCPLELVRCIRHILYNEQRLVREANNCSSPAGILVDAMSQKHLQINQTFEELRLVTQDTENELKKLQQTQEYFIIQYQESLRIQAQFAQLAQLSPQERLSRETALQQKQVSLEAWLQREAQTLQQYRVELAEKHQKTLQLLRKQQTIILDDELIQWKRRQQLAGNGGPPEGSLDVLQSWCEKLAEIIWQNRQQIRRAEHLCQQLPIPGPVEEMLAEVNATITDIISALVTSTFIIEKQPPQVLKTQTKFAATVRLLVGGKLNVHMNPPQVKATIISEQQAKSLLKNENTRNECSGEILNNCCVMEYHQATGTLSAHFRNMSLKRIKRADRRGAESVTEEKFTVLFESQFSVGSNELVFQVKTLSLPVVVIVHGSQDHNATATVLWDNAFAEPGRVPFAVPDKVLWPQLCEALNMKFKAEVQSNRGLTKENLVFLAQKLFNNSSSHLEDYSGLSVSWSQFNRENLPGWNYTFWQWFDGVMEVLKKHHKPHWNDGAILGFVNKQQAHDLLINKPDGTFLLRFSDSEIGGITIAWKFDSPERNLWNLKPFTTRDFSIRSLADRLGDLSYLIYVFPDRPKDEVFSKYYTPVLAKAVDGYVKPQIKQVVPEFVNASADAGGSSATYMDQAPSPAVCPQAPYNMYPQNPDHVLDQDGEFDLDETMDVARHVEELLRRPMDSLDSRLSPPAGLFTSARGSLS
Summary of the method: as §1

Ki [1] [µM]	Ki [2] [µM]	Structure (SMILES)
> 10	1 to 10	CC(C)(C)[C@H](NC(=O)c1cc2cc(C(F)(F)P(=O)(O)O)ccc2s1)C(=O)N1CCCCC[C@H]1C(=O)Nc1ccc(-c2ccccc2)s1 [Compound 306, ((2-(((S)-3,3-dimethyl-1-oxo-1-((S)-2-((5-phenylthiophen-2-yl)carbamoyl)azepan-1-yl)butan-2-yl)carbamoyl)benzo[b]thiophen-5-yl)difluoromethyl)phosphonic acid]
1 to 10	> 10	CC(C)(C)[C@H](NC(=O)c1cc2cc(C(F)(F)P(=O)(O)O)ccc2s1)C(=O)N1C[C@@H](Oc2ccc3ccccc3c2)C[C@H]1C(=O)Nc1ncc(-c2ccccc2)s1 [Compound 209, ((2-(((S)-3,3-dimethyl-1-((2S,4S)-4-(naphthalen-2-yloxy)-2-((5-phenylthiazol-2-yl)carbamoyl)pyrrolidin-1-yl)-1-oxobutan-2-yl)carbamoyl)benzo[b]thiophen-5-yl)difluoromethyl)phosphonic acid]
1 to 10	> 10	CC(=O)N1CC[C@H]2CC[C@@H](C(=O)N(C)C(c3ccccc3)c3ccccc3)N2C(=O)[C@@H](NC(=O)c2cc3cc(C(F)(F)P(=O)(O)O)ccc3[nH]2)C1 [Compound 7, ((2-(((5S,8S,10aR)-3-acetyl-8-(benzhydryl(methyl)carbamoyl)-6-oxodecahydropyrrolo[1,2-a][1,5]diazocin-5-yl)carbamoyl)-1H-indol-5-yl)difluoromethyl)phosphonic acid]
1 to 10	> 10	CC(C)(C)[C@H](NC(=O)c1cc2cc(C(F)(F)P(=O)(O)O)ccc2s1)C(=O)N1CCC[C@H]1C(=O)N(Cc1ccccc1)C1CCOCC1 [Compound 76, ((2-(((S)-1-((S)-2-(benzyl(tetrahydro-2H-pyran-4-yl)carbamoyl)pyrrolidin-1-yl)-3,3-dimethyl-1-oxobutan-2-yl)carbamoyl)benzo[b]thiophen-5-yl)difluoromethyl)phosphonic acid]
> 10	> 10	CC(C)(C)[C@H](NC(=O)c1cc2cc(C(F)(F)P(=O)(O)O)ccc2s1)C(=O)N1CCC[C@H]1C(=O)N1C[C@H]2CCN(C(=O)c3ccc(F)cc3)[C@H]2C1 [Compound 89, (difluoro(2-(((S)-1-((S)-2-((3aR,6aR)-1-(4-fluorobenzoyl)octahydropyrrolo[3,4-b]pyrrole-5-carbonyl)pyrrolidin-1-yl)-3,3-dimethyl-1-oxobutan-2-yl)carbamoyl)benzo[b]thiophen-5-yl)methyl)phosphonic acid]
> 10	> 10	O=C(NC(C(=O)N1CCC[C@H]1C(=O)N1CCc2ccccc2C1)C1CCNCC1)c1cc2cc(C(F)(F)P(=O)(O)O)ccc2[nH]1 (stereo partly drawn) [Compound 28, (difluoro(2-((2-oxo-1-(piperidin-4-yl)-2-((S)-2-(1,2,3,4-tetrahydroisoquinoline-2-carbonyl)pyrrolidin-1-yl)ethyl)carbamoyl)-1H-indol-5-yl)methyl)phosphonic acid]
> 10	> 10	CC(C)(C)[C@H](NC(=O)c1cc2cc(C(F)(F)P(=O)(O)O)ccc2s1)C(=O)N1CCC[C@H]1C(=O)N1CC[C@H]2CCN[C@H]2C1 [Compound 78, ((2-(((S)-3,3-dimethyl-1-((S)-2-((3aR,7aR)-octahydro-1H-pyrrolo[2,3-c]pyridine-6-carbonyl)pyrrolidin-1-yl)-1-oxobutan-2-yl)carbamoyl)benzo[b]thiophen-5-yl)difluoromethyl)phosphonic acid]
1 to 10	> 10	CC(C)(C)[C@H](NC(=O)c1cc2cc(C(F)(F)P(=O)(O)O)ccc2[nH]1)C(=O)N1CCC[C@H]1C(=O)N[C@@H]1CCCc2ccccc21 [Compound 10, ((2-(((S)-3,3-dimethyl-1-oxo-1-((S)-2-(((R)-1,2,3,4-tetrahydronaphthalen-1-yl)carbamoyl)pyrrolidin-1-yl)butan-2-yl)carbamoyl)-1H-indol-5-yl)difluoromethyl)phosphonic acid]
> 10	> 10	CC(=O)N1CC[C@H]2CC[C@@H](C(=O)NC(c3ccccc3)c3ccccc3)N2C(=O)[C@@H](NC(=O)/C=C/c2ccc(C(F)(F)P(=O)(O)O)cc2)C1 [Compound 5, ((4-((E)-3-(((5S,8S,10aR)-3-acetyl-8-(benzhydrylcarbamoyl)-6-oxodecahydropyrrolo[1,2-a][1,5]diazocin-5-yl)amino)-3-oxoprop-1-en-1-yl)phenyl)difluoromethyl)phosphonic acid]
1 to 10	> 10	CC(C)(C)[C@H](NC(=O)c1cc2cc(C(F)(F)P(=O)(O)O)ccc2s1)C(=O)N1CCC[C@H]1C(=O)N1CCC(O)C(c2ccccc2)C1 (stereo partly drawn) [Compound 137, (difluoro(2-(((2S)-1-((2S)-2-(4-hydroxy-3-phenylpiperidine-1-carbonyl)pyrrolidin-1-yl)-3,3-dimethyl-1-oxobutan-2-yl)carbamoyl)benzo[b]thiophen-5-yl)methyl)phosphonic acid]
1 to 10	> 10	CC(C)(C)[C@H](NC(=O)c1cc2cc(C(F)(F)P(=O)(O)O)ccc2s1)C(=O)N1CCC[C@H]1C(=O)N1CCOC(C2CCCCC2)C1 (stereo partly drawn) [Compound 134, ((2-(((2S)-1-((2S)-2-(2-cyclohexylmorpholine-4-carbonyl)pyrrolidin-1-yl)-3,3-dimethyl-1-oxobutan-2-yl)carbamoyl)benzo[b]thiophen-5-yl)difluoromethyl)phosphonic acid]
> 10	> 10	O=C(/C=C/c1ccc(C(F)(F)P(=O)(O)O)cc1)NC(C(=O)N1CCC[C@H]1C(=O)N1CCc2ccccc2C1)C1CCNCC1 (stereo partly drawn) [Compound 29, (difluoro(4-((E)-3-oxo-3-((2-oxo-1-(piperidin-4-yl)-2-((S)-2-(1,2,3,4-tetrahydroisoquinoline-2-carbonyl)pyrrolidin-1-yl)ethyl)amino)prop-1-en-1-yl)phenyl)methyl)phosphonic acid]
> 10	> 10	CC(=O)N1C[C@H]2CCN(C(=O)[C@@H]3CCCN3C(=O)[C@@H](NC(=O)c3cc4cc(C(F)(F)P(=O)(O)O)ccc4s3)C(C)(C)C)[C@H]2C1 [Compound 84, ((2-(((S)-1-((S)-2-((3aR,6aR)-5-acetyloctahydropyrrolo[3,4-b]pyrrole-1-carbonyl)pyrrolidin-1-yl)-3,3-dimethyl-1-oxobutan-2-yl)carbamoyl)benzo[b]thiophen-5-yl)difluoromethyl)phosphonic acid]
1 to 10	> 10	CC1(c2ccc(Cl)cc2)CN(C(=O)[C@@H]2CCCN2C(=O)[C@@H](NC(=O)c2cc3cc(C(F)(F)P(=O)(O)O)ccc3s2)C(C)(C)C)CCO1 (stereo partly drawn) [Compound 101, ((2-(((2S)-1-((2S)-2-(2-(4-chlorophenyl)-2-methylmorpholine-4-carbonyl)pyrrolidin-1-yl)-3,3-dimethyl-1-oxobutan-2-yl)carbamoyl)benzo[b]thiophen-5-yl)difluoromethyl)phosphonic acid]
1 to 10	0.1 to 1	CC(C)(C)[C@H](NC(=O)c1cc2cc(C(F)(F)P(=O)(O)O)ccc2s1)C(=O)N1CCN(C(=O)OCc2ccccc2)C[C@H]1C(=O)Nc1ncc(-c2ccccc2)s1 [Compound 201, ((2-(((S)-1-((S)-4-((benzyloxy)carbonyl)-2-((5-phenylthiazol-2-yl)carbamoyl)piperazin-1-yl)-3,3-dimethyl-1-oxobutan-2-yl)carbamoyl)benzo[b]thiophen-5-yl)difluoromethyl)phosphonic acid]
